13 compounds from patent publication US20260070945A1, “MACROCYCLIC IMMUNOMODULATORS” (Bristol-Myers Squibb Company, priority 2022, published 2026) can be followed below.

*1 amine or outer side, *2 acyl side, *3 side chain or, on linkers, in order; H or OH if unused. Where a SMILES comes first, the peptide text is derived from it. Bridges are numbered along the chain shown (N, C = ends). [ ]: non-standard residue; d: D form. The star is where a group is joined. ξ: configuration not given here. Phe(4-COOH) = N[C@@H](Cc1ccc(C(=O)O)cc1)C(=O)O; Bip = N[C@@H](Cc1ccc(-c2ccccc2)cc1)C(=O)O; Phe(3-Me) = Cc1cccc(C[C@H](N)C(=O)O)c1; NMeAEEA = CN(CCOCCOCC(=O)[*:2])[*:1]; Cha = N[C@@H](CC1CCCCC1)C(=O)O; Cit = NC(=O)NCCC[C@H](N)C(=O)O; Thr(3ξ) = CC(O)[C@H](N)C(=O)O; 12Ado = NCCCCCCCCCCCC(=O)O; hSer = N[C@@H](CCO)C(=O)O; Carboxymethyl = O=C(O)C*; NMeA = CN[C@@H](C)C(=O)O; Aun = NCCCCCCCCCCC(=O)O; Dab = NCC[C@H](N)C(=O)O; AEEA = NCCOCCOCC(=O)O

For orientation: IC50 means the concentration that gives 50% inhibition.

In this assay the target is T1, PD-1/PD-L1 interaction (PE-labeled human PD-L1-Ig binding to Jurkat cell line over-expressing human PD-1) (Homo sapiens, UniProt Q15116).
T1 construct: expressed in transfected cells; host or cells: Jurkat
T1 sequence (Q15116 25-288): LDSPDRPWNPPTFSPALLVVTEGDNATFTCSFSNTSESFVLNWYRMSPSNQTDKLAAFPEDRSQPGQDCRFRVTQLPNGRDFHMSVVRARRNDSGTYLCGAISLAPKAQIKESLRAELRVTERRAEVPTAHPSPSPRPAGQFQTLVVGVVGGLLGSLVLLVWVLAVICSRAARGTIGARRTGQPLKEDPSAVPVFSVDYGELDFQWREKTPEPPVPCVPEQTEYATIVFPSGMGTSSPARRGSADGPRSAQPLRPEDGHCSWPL
Put plainly: Jurkat-PD-1 Cell Binding High-Content Screening Assay (CBA). Conditions: Jurkat-hPD-1 cells, PE-labeled PD-L1-Ig 20 nM final; read-out: Jurkat HPD1 PDL1 IC50. The gist of the method: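 Jurkat cells overexpressing human PD-1 (8×10^3/well, DMEM + 10% FCS) preincubated with compound 2 h at 37 °C, then PE-labelled human PD-L1-Ig (20 nM final) for 1 h. Cells fixed in paraformaldehyde with Hoechst 33342; bound PD-L1 quantified by high-content imaging.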
Consider `Cc1cccc(C[C@@H]2NC(=O)[C@H](CC(=O)O)NC(=O)[C@H](Cc3ccc(OCC(=O)O)cc3)NC(=O)[C@H](C(C)O)NC(=O)CSC[C@@H](C(=O)N[C@@H](CCN)C(=O)NCCCCCCCCCCC(=O)O)NC(=O)[C@H](C(C)O)NC(=O)[C@H](C(C)C)NC(=O)[C@H](CC3CCCCC3)NC(=O)[C@H](CCN)NC(=O)[C@@H](CC(C)C)NC(=O)[C@H](C)N(C)C(=O)[C@H](Cc3ccc(OCC(=O)O)cc3)NC(=O)[C@H](Cc3ccc(-c4ccccc4)cc3)NC(=O)[C@H](Cc3ccc(C(=O)O)cc3)NC2=O)c1` (stereo partly drawn) [Example 2353] ({CH2CO}-[Thr(3ξ)]Y(Carboxymethyl)D[Phe(3-Me)][Phe(4-COOH)][Bip]Y(Carboxymethyl)[NMeA][dL][Dab][Cha]V[Thr(3ξ)]C[Dab][Aun]-OH; thioether N-14), for which the 50% inhibitory concentration (IC50) amounted to 21.5 nM.
With `Cc1cccc(C[C@@H]2NC(=O)[C@H](CC(=O)O)NC(=O)[C@H](Cc3ccc(OCC(=O)O)cc3)NC(=O)[C@H](C(C)O)NC(=O)CSC[C@@H](C(=O)N[C@@H](CCN)C(=O)NCCCCCCCCCCC(=O)O)NC(=O)[C@H](C(C)O)NC(=O)[C@H](C(C)C)NC(=O)[C@H](CC3CCCCC3)NC(=O)[C@H](CCN)NC(=O)[C@@H](CC(C)C)NC(=O)[C@H](C)N(C)C(=O)[C@H](Cc3ccc(OCC(=O)O)cc3)NC(=O)[C@H](Cc3ccc(-c4ccccc4)cc3)NC(=O)[C@H](CCCNC(N)=O)NC2=O)c1` (stereo partly drawn) [Example 2354] ({CH2CO}-[Thr(3ξ)]Y(Carboxymethyl)D[Phe(3-Me)][Cit][Bip]Y(Carboxymethyl)[NMeA][dL][Dab][Cha]V[Thr(3ξ)]C[Dab][Aun]-OH; thioether N-14) the figure was 21.4 nM.
Consider `Cc1cccc(C[C@@H]2NC(=O)[C@H](CC(=O)O)NC(=O)[C@H](Cc3ccc(OCC(=O)O)cc3)NC(=O)[C@H](C(C)O)NC(=O)CSC[C@@H](C(=O)N(C)CCOCCOCC(=O)NCCCCCCCCCCC(=O)O)NC(=O)[C@H](C(C)C)NC(=O)[C@H](C(C)C)NC(=O)[C@H](CC3CCCCC3)NC(=O)[C@H](CCN)NC(=O)[C@@H](CC(C)C)NC(=O)[C@H](C)N(C)C(=O)[C@H](CCCNC(N)=O)NC(=O)[C@H](Cc3ccc(-c4ccccc4)cc3)NC(=O)[C@H](C(C)C)NC2=O)c1` (stereo partly drawn) [Example 2355] ({CH2CO}-[Thr(3ξ)]Y(Carboxymethyl)D[Phe(3-Me)]V[Bip][Cit][NMeA][dL][Dab][Cha]VVC[NMeAEEA][Aun]-OH; thioether N-14), for which the half-maximal inhibitory concentration (IC50) was determined as 45.3 nM.
The figure for `Cc1cccc(C[C@@H]2NC(=O)[C@H](CC(=O)O)NC(=O)[C@H](Cc3ccc(OCC(=O)O)cc3)NC(=O)[C@H](CCCNC(=N)N)NC(=O)CSC[C@@H](C(=O)N(C)CCOCCOCC(=O)NCCCCCCCCCCC(=O)O)NC(=O)[C@H](C(C)C)NC(=O)[C@H](C(C)C)NC(=O)[C@H](CC3CCCCC3)NC(=O)[C@H](CCN)NC(=O)[C@@H](CC(C)C)NC(=O)[C@H](C)N(C)C(=O)[C@H](CCCNC(N)=O)NC(=O)[C@H](Cc3ccc(-c4ccccc4)cc3)NC(=O)[C@H](C(C)C)NC2=O)c1` [Example 2356] ({CH2CO}-RY(Carboxymethyl)D[Phe(3-Me)]V[Bip][Cit][NMeA][dL][Dab][Cha]VVC[NMeAEEA][Aun]-OH; thioether N-14) is 34.7 nM; for `Cc1cccc(C[C@@H]2NC(=O)[C@H](CC(=O)O)NC(=O)[C@H](Cc3ccc(OCC(=O)O)cc3)NC(=O)[C@H](C(C)O)NC(=O)CSC[C@@H](C(=O)N(C)CCOCCOCC(=O)NCCCCCCCCCCC(=O)O)NC(=O)[C@H](CCC(N)=O)NC(=O)[C@H](C(C)C)NC(=O)[C@H](CC3CCCCC3)NC(=O)[C@H](CCN)NC(=O)[C@@H](CC(C)C)NC(=O)[C@H](C)N(C)C(=O)[C@H](C(C)C)NC(=O)[C@H](Cc3ccc(-c4ccccc4)cc3)NC(=O)[C@H](C(C)C)NC2=O)c1` (stereo partly drawn) [Example 2357] ({CH2CO}-[Thr(3ξ)]Y(Carboxymethyl)D[Phe(3-Me)]V[Bip]V[NMeA][dL][Dab][Cha]VQC[NMeAEEA][Aun]-OH; thioether N-14) it is 66.7 nM.
With `CC(=O)NCCCC[C@@H]1NC(=O)[C@H](Cc2ccc(-c3ccccc3)cc2)NC(=O)[C@H](C(C)C)NC(=O)[C@H](Cc2cccc(C)c2)NC(=O)[C@H](CC(=O)O)NC(=O)[C@H](Cc2ccc(OCC(=O)O)cc2)NC(=O)[C@H](C(C)O)NC(=O)CSC[C@@H](C(=O)N(C)CCOCCOCC(=O)NCCCCCCCCCCC(=O)O)NC(=O)[C@H](C(C)C)NC(=O)[C@H](C(C)C)NC(=O)[C@H](CC2CCCCC2)NC(=O)[C@H](CCN)NC(=O)[C@@H](CC(C)C)NC(=O)[C@H](C)N(C)C1=O` (stereo partly drawn) [Example 2358] ({CH2CO}-[Thr(3ξ)]Y(Carboxymethyl)D[Phe(3-Me)]V[Bip]K(Ac)[NMeA][dL][Dab][Cha]VVC[NMeAEEA][Aun]-OH; thioether N-14) the figure was 16.6 nM; with `Cc1cccc(C[C@@H]2NC(=O)[C@H](CC(=O)O)NC(=O)[C@H](Cc3ccc(OCC(=O)O)cc3)NC(=O)[C@H](C(C)O)NC(=O)CSC[C@@H](C(=O)N(C)CCOCCOCC(=O)NCCCCCCCCCCC(=O)O)NC(=O)[C@H](CCCNC(N)=O)NC(=O)[C@H](C(C)C)NC(=O)[C@H](CC3CCCCC3)NC(=O)[C@H](CCN)NC(=O)[C@@H](CC(C)C)NC(=O)[C@H](C)N(C)C(=O)[C@H](C(C)C)NC(=O)[C@H](Cc3ccc(-c4ccccc4)cc3)NC(=O)[C@H](C(C)C)NC2=O)c1` (stereo partly drawn) [Example 2359] ({CH2CO}-[Thr(3ξ)]Y(Carboxymethyl)D[Phe(3-Me)]V[Bip]V[NMeA][dL][Dab][Cha]V[Cit]C[NMeAEEA][Aun]-OH; thioether N-14), 26.3 nM.
The figure for `Cc1cccc(C[C@@H]2NC(=O)[C@H](CC(=O)O)NC(=O)[C@H](Cc3ccc(OCC(=O)O)cc3)NC(=O)[C@H](CCCNC(=N)N)NC(=O)CSC[C@@H](C(=O)N[C@H](CC(N)=O)C(=O)NCCCCCCCCCCC(=O)O)NC(=O)[C@H](C(C)C)NC(=O)[C@H](C(C)C)NC(=O)[C@H](CC3CCCCC3)NC(=O)[C@H](CCN)NC(=O)[C@@H](CC(C)C)NC(=O)[C@H](C)N(C)C(=O)[C@H](Cc3ccc(OCC(=O)O)cc3)NC(=O)[C@H](Cc3ccc(-c4ccccc4)cc3)NC(=O)[C@H](Cc3ccc(OCC(=O)O)cc3)NC2=O)c1` [Example 2360] ({CH2CO}-RY(Carboxymethyl)D[Phe(3-Me)]Y(Carboxymethyl)[Bip]Y(Carboxymethyl)[NMeA][dL][Dab][Cha]VVC[dN][Aun]-OH; thioether N-14) is 26.9 nM.
With `Cc1cccc(C[C@@H]2NC(=O)[C@H](CC(=O)O)NC(=O)[C@H](Cc3ccc(OCC(=O)O)cc3)NC(=O)[C@H](C(C)O)NC(=O)CSC[C@@H](C(=O)N[C@H](CC(N)=O)C(=O)NCCCCCCCCCCC(=O)O)NC(=O)[C@H](C(C)C)NC(=O)[C@H](C(C)C)NC(=O)[C@H](CC3CCCCC3)NC(=O)[C@H](CCN)NC(=O)[C@@H](CC(C)C)NC(=O)[C@H](C)N(C)C(=O)[C@H](Cc3ccc(OCC(=O)O)cc3)NC(=O)[C@H](Cc3ccc(-c4ccccc4)cc3)NC(=O)[C@H](Cc3ccc(OCC(=O)O)cc3)NC2=O)c1` (stereo partly drawn) [Example 2361] ({CH2CO}-[Thr(3ξ)]Y(Carboxymethyl)D[Phe(3-Me)]Y(Carboxymethyl)[Bip]Y(Carboxymethyl)[NMeA][dL][Dab][Cha]VVC[dN][Aun]-OH; thioether N-14), the IC50 is 18.3 nM.
The figure for `Cc1cccc(C[C@@H]2NC(=O)[C@H](CC(=O)O)NC(=O)[C@H](Cc3ccc(OCC(=O)O)cc3)NC(=O)[C@H](CCCNC(=N)N)NC(=O)CSC[C@@H](C(=O)N[C@H](CC(N)=O)C(=O)NCCCCCCCCCCC(=O)O)NC(=O)[C@H](CCO)NC(=O)[C@H](C(C)C)NC(=O)[C@H](CC3CCCCC3)NC(=O)[C@H](CCN)NC(=O)[C@@H](CC(C)C)NC(=O)[C@H](C)N(C)C(=O)[C@H](Cc3ccc(OCC(=O)O)cc3)NC(=O)[C@H](Cc3ccc(-c4ccccc4)cc3)NC(=O)[C@H](Cc3ccc(OCC(=O)O)cc3)NC2=O)c1` [Example 2362] ({CH2CO}-RY(Carboxymethyl)D[Phe(3-Me)]Y(Carboxymethyl)[Bip]Y(Carboxymethyl)[NMeA][dL][Dab][Cha]V[hSer]C[dN][Aun]-OH; thioether N-14) is 40.2 nM; for `Cc1cccc(C[C@@H]2NC(=O)[C@H](CC(=O)O)NC(=O)[C@H](Cc3ccc(OCC(=O)O)cc3)NC(=O)[C@H](C(C)O)NC(=O)CSC[C@@H](C(=O)N(C)CCOCCOCC(=O)NCCCCCCCCCCC(=O)O)NC(=O)[C@H](C(C)O)NC(=O)[C@H](C(C)C)NC(=O)[C@H](CC3CCCCC3)NC(=O)[C@H](CCN)NC(=O)[C@@H](CC(C)C)NC(=O)[C@H](C)N(C)C(=O)[C@H](C(C)C)NC(=O)[C@H](Cc3ccc(-c4ccccc4)cc3)NC(=O)[C@H](C(C)C)NC2=O)c1` (stereo partly drawn) [Example 2363] ({CH2CO}-[Thr(3ξ)]Y(Carboxymethyl)D[Phe(3-Me)]V[Bip]V[NMeA][dL][Dab][Cha]V[Thr(3ξ)]C[NMeAEEA][Aun]-OH; thioether N-14) it is 21.9 nM.
With `Cc1cccc(C[C@@H]2NC(=O)[C@H](CC(=O)O)NC(=O)[C@H](Cc3ccc(OCC(=O)O)cc3)NC(=O)[C@H](C(C)O)NC(=O)CSC[C@@H](C(=O)N(C)CCOCCOCC(=O)NCCCCCCCCCCC(=O)O)NC(=O)[C@H](CCO)NC(=O)[C@H](C(C)C)NC(=O)[C@H](CC3CCCCC3)NC(=O)[C@H](CCN)NC(=O)[C@@H](CC(C)C)NC(=O)[C@H](C)N(C)C(=O)[C@H](C(C)C)NC(=O)[C@H](Cc3ccc(-c4ccccc4)cc3)NC(=O)[C@H](C(C)C)NC2=O)c1` (stereo partly drawn) [Example 2364] ({CH2CO}-[Thr(3ξ)]Y(Carboxymethyl)D[Phe(3-Me)]V[Bip]V[NMeA][dL][Dab][Cha]V[hSer]C[NMeAEEA][Aun]-OH; thioether N-14), the IC50 was found to be 36.3 nM.
The figure for `Cc1cccc(C[C@@H]2NC(=O)[C@H](CC(=O)O)NC(=O)[C@H](Cc3ccc(C(=O)O)cc3)NC(=O)[C@H](Cc3ccc(OCC(=O)O)cc3)NC(=O)CSC[C@@H](C(=O)NCCOCCOCC(=O)NCCCCCCCCCCCC(=O)O)NC(=O)[C@H](CCCCN)NC(=O)[C@H](C(C)C)NC(=O)[C@H](CC3CCCCC3)NC(=O)[C@H](Cc3cnc[nH]3)NC(=O)[C@@H](CC(C)C)NC(=O)[C@H](C)N(C)C(=O)[C@H](CCCNC(N)=O)NC(=O)[C@H](Cc3ccc(-c4ccccc4)cc3)NC(=O)[C@H](C(C)C)NC2=O)c1` [Example 2367] ({CH2CO}-Y(Carboxymethyl)[Phe(4-COOH)]D[Phe(3-Me)]V[Bip][Cit][NMeA][dL]H[Cha]VKC[AEEA][12Ado]-OH; thioether N-14) is 67.1 nM.
